Laboratory results reported in ChEMBL document CHEMBL1201862, “PubChem BioAssay data set” (2004).
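48-hour exposure; five concentrations; linearly interpolated endpoints. GI50: concentration for 50% inhibition of growth.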 Calls of active or inactive are those of the source. Rule as the data show it: active = GI50 up to about 1.1 µM and inactive = higher.

Key:
Test in all cases: NCI-60 cell line screen, 48 h
[1] = system: U-251
[2] = system: OVCAR-5
[3] = system: HT-29
[4] = system: HOP-62
[5] = system: HCT-116
[6] = system: UO-31
[7] = system: DMS-114
[8] = system: LOX IMVI
[9] = system: HCC 2998
[10] = system: SNB-75
[11] = system: SR
[12] = system: NCI-H23
[13] = system: CAKI-1
[14] = system: SK-MEL-5
[15] = system: COLO 205
[16] = system: M14
[17] = system: M19-MEL
[18] = system: SF-295
[19] = system: OVCAR-3
[20] = system: OVCAR-4
[21] = system: SW-620
[22] = system: CCRF-CEM
[23] = system: RPMI-8226
[24] = system: SK-OV-3
[25] = system: SNB-19
[26] = system: 786-0
[27] = system: HCT-15
[28] = system: SN12C
[29] = system: SF-268
[30] = system: UACC-257
[31] = system: DLD-1
[32] = system: LXFL 529
[33] = system: KM12
[34] = system: Malme-3M
[35] = system: SF-539
[36] = system: KM-20L2
[37] = system: OVCAR-8
[38] = system: DMS-273
[39] = system: UACC-62
[40] = system: TK-10
[41] = system: NCI-H226
[42] = system: NCI-H460
[43] = system: SNB-78
[44] = system: HL-60
[45] = system: RXF 393
[46] = system: XF498
[47] = system: MOLT-4
[48] = system: HOP-92
[49] = system: A549
[50] = system: K562
[51] = system: NCI-H522
[52] = system: SK-MEL-28
[53] = system: ACHN
[54] = system: IGROV-1
[55] = system: A498
[56] = system: EKVX

What does the source list for `CC(=O)CC(=O)ON(C)C(=O)Cc1ccccc1`?
GI50 [1]: > 100 µM (inactive); GI50 [2]: > 100 µM (inactive); GI50 [3]: > 100 µM (inactive); GI50 [4]: > 100 µM (inactive); GI50 [5]: > 100 µM (inactive); GI50 [6]: > 100 µM (inactive); GI50 [7]: > 100 µM (inactive); GI50 [8]: > 100 µM (inactive); GI50 [9]: > 100 µM (inactive); GI50 [10]: > 100 µM (inactive); GI50 [11]: > 100 µM (inactive); GI50 [12]: > 100 µM (inactive); GI50 [13]: > 100 µM (inactive); GI50 [14]: > 100 µM (inactive); GI50 [15]: > 100 µM (inactive); GI50 [16]: > 100 µM (inactive); GI50 [17]: > 100 µM (inactive); GI50 [18]: > 100 µM (inactive); GI50 [19]: > 100 µM (inactive); GI50 [20]: > 100 µM (inactive); GI50 [21]: > 100 µM (inactive); GI50 [22]: > 100 µM (inactive); GI50 [23]: > 100 µM (inactive); GI50 [24]: > 100 µM (inactive); GI50 [25]: > 100 µM (inactive); GI50 [26]: > 100 µM (inactive); GI50 [27]: > 100 µM; GI50 [28]: > 100 µM (inactive); GI50 [29]: > 100 µM (inactive); GI50 [30]: > 100 µM (inactive); GI50 [31]: > 100 µM (inactive); GI50 [32]: > 100 µM (inactive); GI50 [33]: > 100 µM (inactive); GI50 [34]: > 100 µM (inactive); GI50 [35]: > 100 µM (inactive); GI50 [36]: > 100 µM (inactive); GI50 [37]: > 100 µM (inactive); GI50 [38]: > 100 µM (inactive); GI50 [39]: > 100 µM (inactive); GI50 [40]: > 100 µM (inactive); GI50 [41]: > 100 µM (inactive); GI50 [42]: > 100 µM (inactive); GI50 [43]: > 100 µM (inactive); GI50 [44]: > 100 µM (inactive); GI50 [45]: > 100 µM (inactive); GI50 [46]: > 100 µM (inactive); GI50 [47]: > 100 µM (inactive); GI50 [48]: > 100 µM (inactive); GI50 [49]: > 100 µM (inactive); GI50 [50]: > 100 µM (inactive); GI50 [51]: > 100 µM (inactive); GI50 [52]: > 100 µM (inactive); GI50 [53]: > 100 µM (inactive); GI50 [54]: > 100 µM (inactive)

For `Cc1cc(C)nc(NS(=O)(=O)c2ccc(NC(=O)COC(=O)c3cccc4c(=O)c5ccccc5[nH]c34)cc2)n1`, which GI50 [1] is on record?
The GI50 was 20 µM (inactive).

What about the GI50 [2] of the same compound?
Its GI50 is 20.7 µM (inactive).

What about the GI50 [55] of the same compound?
The GI50 was 30.3 µM (inactive).

What about the GI50 [3] of the same compound?
Its GI50 is 33 µM (inactive).

And the GI50 [4]?
Its GI50 is 23.7 µM (inactive).

And the GI50 [5]?
The GI50 was 23.7 µM (inactive).

And the GI50 [6]?
Its GI50 is 61.9 µM (inactive).

What about the GI50 [7] of the same compound?
The GI50 was 56.5 µM (inactive).

And the GI50 [8]?
The GI50 was 20.5 µM (inactive).

What about the GI50 [9] of the same compound?
Its GI50 is 21.1 µM (inactive).

And the GI50 [10]?
The GI50 was 31 µM (inactive).

What about the GI50 [11] of the same compound?
Its GI50 is 28.6 µM (inactive).

And the GI50 [12]?
The GI50 was 29.7 µM (inactive).

What about the GI50 [13] of the same compound?
Its GI50 is > 100 µM (inactive).

And the GI50 [14]?
The GI50 was 40.6 µM (inactive).

And the GI50 [15]?
Its GI50 is 48.8 µM (inactive).

What about the GI50 [16] of the same compound?
The GI50 was 56 µM (inactive).

And the GI50 [17]?
The GI50 was 20.4 µM (inactive).

And the GI50 [18]?
The GI50 was 33.7 µM (inactive).

And the GI50 [19]?
The GI50 was 23.6 µM (inactive).

What about the GI50 [20] of the same compound?
Its GI50 is 49.1 µM (inactive).

And the GI50 [21]?
Its GI50 is 31.8 µM (inactive).

What about the GI50 [22] of the same compound?
The GI50 was 34.3 µM (inactive).

What about the GI50 [23] of the same compound?
Its GI50 is 35.7 µM (inactive).

And the GI50 [24]?
The GI50 was 38.8 µM (inactive).

What about the GI50 [25] of the same compound?
Its GI50 is 26.8 µM (inactive).

What about the GI50 [56] of the same compound?
Its GI50 is 54.2 µM (inactive).

And the GI50 [26]?
Its GI50 is 19.1 µM (inactive).

What about the GI50 [27] of the same compound?
Its GI50 is over 100 µM.

What about the GI50 [28] of the same compound?
The GI50 was 40.4 µM (inactive).

And the GI50 [29]?
The GI50 was 37.7 µM (inactive).

And the GI50 [30]?
The GI50 was 27.1 µM (inactive).

And the GI50 [31]?
Its GI50 is 45.7 µM (inactive).

What about the GI50 [32] of the same compound?
Its GI50 is 39.8 µM (inactive).

And the GI50 [33]?
Its GI50 is 19.3 µM (inactive).

What about the GI50 [34] of the same compound?
Its GI50 is 26.7 µM (inactive).

What about the GI50 [35] of the same compound?
Its GI50 is 19.5 µM (inactive).

And the GI50 [36]?
The GI50 was 38.6 µM (inactive).

And the GI50 [37]?
The GI50 was 32.1 µM (inactive).

What about the GI50 [38] of the same compound?
Its GI50 is 41.2 µM (inactive).

And the GI50 [39]?
The GI50 was 19.5 µM (inactive).

What about the GI50 [40] of the same compound?
Its GI50 is 76.4 µM (inactive).

What about the GI50 [41] of the same compound?
Its GI50 is 53.3 µM (inactive).

And the GI50 [42]?
Its GI50 is 49 µM (inactive).

What about the GI50 [43] of the same compound?
Its GI50 is 82.2 µM (inactive).

What about the GI50 [44] of the same compound?
The GI50 was 26.9 µM (inactive).

And the GI50 [45]?
The GI50 was 36.5 µM (inactive).

What about the GI50 [46] of the same compound?
The GI50 was 33.3 µM (inactive).

And the GI50 [47]?
The GI50 was 31.3 µM (inactive).

What about the GI50 [48] of the same compound?
Its GI50 is 31.1 µM (inactive).

And the GI50 [49]?
The GI50 was > 100 µM (inactive).

What about the GI50 [50] of the same compound?
Its GI50 is 32 µM (inactive).

And the GI50 [51]?
The GI50 was 27.2 µM (inactive).

What about the GI50 [52] of the same compound?
The GI50 was 31.7 µM (inactive).

And the GI50 [53]?
The GI50 was 47.5 µM (inactive).

What about the GI50 [54] of the same compound?
The GI50 was 43.5 µM (inactive).
